One assay concerns the target T1, GST-E6/His-caspase 8 (Human papillomavirus type 16, UniProt P03126).
T1 construct: made in house
Put plainly: AlphaScreen bead-based assay, GST-E6/His-caspase 8 binding. Details: species or system HPV 16. The note with it: for inhibition of E6/caspase 8 binding (in words): FIG. 2A, primary screen at 10 μM. Here is the method:
(§1) FIGS. 2A-C are graphs providing data regarding inhibition of protein-protein interactions by 3-(1H-indol-1yl)propan-1-amine (1), three benzimidazole derivatives (2-4), and spinacine (5). Compounds, at the indicated concentrations (1.4 μM to 3.2 mM) were tested using a bead-based screening assay for their ability to inhibit three different protein/protein interactions: (FIG. 2A) GST-E6/His-caspase 8; (FIG. 2B) GST-E6/HisE6AP; and (FIG. 2C) GST-caspase 8/His-caspase 8. Binding in the presence of 1.4 μM of the test compound was set at 100%. Experiments were performed in triplicate, and error bars indicate the standard deviation.
HPV E6 binds to caspase 8 (Garnett, T. O., M. Filippova, and P. J. Duerksen-Hughes, Accelerated degradation of FADD and procaspase 8 in cells expressing human papilloma virus 16 E6 impairs TRAIL-mediated apoptosis. Cell death and differentiation, 2006. 13(11): p. 1915-26), and myricetin can block the E6/caspase 8 interaction in vitro (Yuan, C. H., et al., Small molecule inhibitors of the HPV16-E6 interaction with caspase 8. Bioorganic & medicinal chemistry letters, 2012. 22(5): p. 2125-9). A bead-based assay based on AlphaScreen™ technology (Perkin-Elmer) is used to identify inhibitors of the E6/caspase 8 interaction (Yuan, C. H., et al., Small molecule inhibitors of the HPV16-E6 interaction with caspase 8. Bioorganic & medicinal chemistry letters, 2012. 22(5): p. 2125-9). The ActiProbe 2K (2,000 compounds) library was screened using the same approach. […] Analysis of the structures and physical/chemical characteristics of those molecules led to the selection of five additional compounds: 3-(1H-indol-1-yl)propan-1-amine methanesulfonate (1), benzimidazole (2), 1H-benzimidazole-1-methanol (3), 2-(methoxymethyl)-1H-benzimidazole (4), and spinacine (5) for further study (FIG. 1).
(§2) To determine the dose-responsiveness of these five compounds, variable concentrations of those small molecules were first tested for their ability to inhibit E6/caspase binding. […] These molecules, which had been selected for their ability to interfere with E6/caspase 8 binding, were then tested to determine if they could also affect other interactions of E6, such as its binding to E6-associated protein (E6AP). The E6/E6AP interaction is required for the E6-mediated acceleration of p53 degradation (Huibregtse, J. M., M. Scheffner, and P. M. Howley, A cellular protein mediates association of p53 with the E6 oncoprotein of human papillomavirus types 16 or 18. The EMBO journal, 1991. 10(13): p. 4129-35).
Alpha-Screen™ technology was used to assess the interactions between GST-E6, GST-caspase 8, His-E6AP, and His-caspase 8. Binding assays were performed in white 384-well plates (Perkin-Elmer) in a total volume of 25 μl as previously described (Tungteakkhun, S. S., et al., The interaction between human papillomavirus type 16 and FADD is mediated by a novel E6 binding domain. Journal of virology, 2008. 82(19): p. 9600-14). Briefly, 5 μl (50 ng) of GST-E6 and 5 μl (87.5 ng) of His-caspase 8 were included in each reaction mixture with 5 μl blocking buffer (0.5 mg BSA, 0.5% Tween 20 in PBS) in the absence or presence of 10 μM of each test chemical. […] The mixture was incubated in the dark at room temperature overnight, and the emitted signal was detected using the Envision Multilabel plate reader (Perkin-Elmer). In the presence of test chemicals, the binding affinity was calculated as a percentage of the binding in the presence of carrier only (DMSO).
A general note: In Alpha technology, singlet oxygen from a donor bead excites a nearby acceptor bead.

A further assay addresses T2, GST-E6/His-E6AP (Human papillomavirus type 16, UniProt P03126).
T2 construct: made in house
The assay is described as follows: AlphaScreen bead-based assay, GST-E6/His-E6AP binding. Details: species or system HPV 16. The note with it: for inhibition of E6/E6AP interaction (in words): FIG. 2B. As for the experimental part: as §1, §2
(§3) Alpha-Screen™ technology was used to assess the interactions between GST-E6, GST-caspase 8, His-E6AP, and His-caspase 8. Binding assays were performed in white 384-well plates (Perkin-Elmer) in a total volume of 25 μl as previously described (Tungteakkhun, S. S., et al., The interaction between human papillomavirus type 16 and FADD is mediated by a novel E6 binding domain. Journal of virology, 2008. 82(19): p. 9600-14). Briefly, 5 μl (50 ng) of GST-E6 and 5 μl (87.5 ng) of His-caspase 8 were included in each reaction mixture with 5 μl blocking buffer (0.5 mg BSA, 0.5% Tween 20 in PBS) in the absence or presence of 10 μM of each test chemical. Members of the library were present at […] in DMSO. After a one-hour incubation of the mixture at room temperature, 5 μl donor beads and 5 μl acceptor beads (Perkin-Elmer) were added to each well according to the manufacturer's protocol. The mixture was incubated in the dark at room temperature overnight, and the emitted signal was detected using the Envision Multilabel plate reader (Perkin-Elmer). In the presence of test chemicals, the binding affinity was calculated as a percentage of the binding in the presence of carrier only (DMSO).

Assay [1] addresses T3, GST-caspase 8/His-caspase 8 (Homo sapiens, UniProt Q14790).
T3 construct: pTriEx-Caspase-8 DED plasmids; fused on or other part: GST tag on one copy, His tag on the other (AlphaScreen bead handles)
The assay is described as follows: AlphaScreen counter-screen, GST-caspase 8/His-caspase 8 binding. The note with it: for inhibition of caspase 8/caspase 8 interaction (in words): FIG. 2C. Here is the method:
as §1
To ask whether this inhibition was specific, a counter-screening assay was employed the ability of candidates to inhibit the binding of GST-caspase 8 to His-caspase 8 was assessed; those that did were to be eliminated. In this counter-screening assay, the materials in each well were the same as in the primary screen, with the exception that GST-caspase 8 replaced GST-E6.
as §3

The next assay has as its system SiHa cells. The assay is described as follows: MTT cell viability, SiHa cells, TRAIL-induced apoptosis. Format: cell-based, human. The note with it: SiHa cells in comparison to U2OS cells; with cycloheximide 5 μg/ml, FIG. 3A. As for the experimental part:
FIGS. 3A-E are graphs providing data regarding resistance of HPV^+ SiHa cells to TRAIL-, cisplatin- and […] apoptosis, in the presence and absence of small molecules as disclosed herein. (FIG. 3A) HPV^+ SiHa cells are resistant to TRAIL-induced apoptosis as compared to the human osteosarcoma cell line U2OS. Cells (2×10^4 cells per well) were seeded into a 96-well plate, allowed to incubate overnight, and then treated with indicated concentration of TRAIL in the presence of cycloheximide (5 μg/ml). The viability of cells was measured after overnight incubation using the MTT assay; the viability of cells untreated with TRAIL was set at 100% for each group. (FIG. 3B) The indicated concentrations of three small molecules were added to SiHa cells, and an MTT assay was preformed after overnight incubation. The viability of cells untreated with small molecules was set as 100%. (FIG. 3C) The indicated concentrations of myricetin or spinacine were added 4 h prior to TRAIL (100 ng/ml) in the presence of cycloheximide (5 μg/ml) and incubated at 37° C. overnight. The viability of cells untreated with small molecules was set at 100%. (FIG. 3D and FIG. 3E) SiHa cells (2×10^4 cells per well) were seeded into a 96-well plate and allowed to incubate overnight. 100 μM of myricetin and 50 μM of spinacine were added 4 h prior to either (FIG. 3D) doxorubicin or (FIG. 3E) cisplatin. Cell viability was measured after overnight incubation using the MTT assay, and the viability of cells untreated with either myricetin or spinacine was set at 100%. Experiments were performed in triplicate, and error bars indicate the standard deviation.
FIGS. 5A-B are graphs showing myricetin and spinacine (5) re-sensitized HPV^+, but not HPV^−, cells to treatment with TRAIL. SiHa (2×10^4 cells per well) and C33A cells (1×10^4 cells per well) were seeded into a 96-well plate and allowed to incubate overnight, then cells were pre-treated in the presence or absence of myricetin (100 μM) (FIG. 5A) or spinacine (50 μM) (FIG. 5B) for 4 h. The indicated concentration of TRAIL, along with cycloheximide (5 μg/ml) was added and cells were allowed to incubate overnight. Cell viability was measured by MTT assay, and the viability of cells untreated with TRAIL was set at 100%. Experiments were performed in triplicate, and error bars indicate the standard deviation.
The molecules were then tested to determine whether those that block E6/caspase 8 binding in vitro could also act in the context of a cell. SiHa cells are an HPV^+ cell line, derived from a cervical carcinoma, which serves as a commonly used model for HPV-associated malignancies. To determine whether HPV^+ SiHa cells are resistant to TRAIL-induced apoptosis, SiHa cells were treated with TRAIL and cell viability was assessed. TRAIL-sensitive, HPV^− U2OS cells served as a positive control. […] Myricetin and/or spinacine were tested to determine if they could sensitize these HPV^+ cells to TRAIL-induced apoptosis. […] Table 2 lists and compares the concentrations of the three tested compounds required to induce death in 50% of SiHa cells in the presence or absence of TRAIL.
The extracellular domain of human TRAIL was cloned into a pTriEx expression plasmid containing N-terminal Hisx6 tag. His-TRAIL was expressed in the E. coli BL-21 pLys strain and purified as previously described. Doxorubicin and cisplatin were purchased from Sigma. His-TRAIL, doxorubicin, and cisplatin were diluted in PBS to the desired concentration before using. To measure cell survival following treatment with TRAIL, cisplatin and doxorubicin, SiHa (2×10^4/well), C33A (1×10^4/well), and HNSCC cells (2×10^4/well) were seeded into 96-well plates and allowed to adhere overnight. Small molecules at the desired concentration were added and incubated at 37° C. for 4 h. As indicated, TRAIL, cisplatin or doxorubicin was then added. […]

The test system of assay [2] is UPCI-SCC90-UP-Clone 35 (#90) cells. Put plainly: MTT cell viability, HPV+ HNSCC cell line #90 with TRAIL. The class given is cell-based. The note with it: all selected cell lines; TRAIL as high as 100 ng/ml, FIG. 7A. As for the experimental part: FIGS. 7A-E are graphs showing myricetin and spinacine (5) re-sensitized HPV^+, but not HPV^−, head and neck cancer cell lines to treatment with TRAIL. (FIG. 7A) Both HPV^− and HPV^+ HN cancer cell lines display resistance to TRAIL treatment. HPV^− (#84) (Myricetin—FIG. 7B; Spinacine—FIG. 7C) and HPV^+ (#90) (FIG. 7D; Spinacine—FIG. 7E) head and neck cancer cell lines (2×10^4 cells per well) were seeded into 96-well plates and allowed to incubate overnight, then cells were pre-treated with myricetin (0-200 μM) or spinacine (0-100 μM) for 4 h. […] of TRAIL, along with cycloheximide (5 μg/ml) was added and cells were allowed to incubate overnight. Cell viability was measured by the MTT assay, and the viability of cells untreated with small molecules was set at 100%. Experiments were performed in triplicate, and error bars indicate the standard deviation.
As shown above, myricetin and spinacine sensitize SiHa cells to TRAIL and chemotherapy drugs. […] Other types of HPV^+ cancer cells were examined, and in particular, head and neck squamous cell carcinoma (HNSCC) cells can also be sensitized in this manner. […] For the combination experiments, 50 ng/ml TRAIL was applied in combination with either myricetin (0-200 μM) or spinacine (0-100 μM). […] In contrast […], TRAIL-induced cell death was enhanced 30% in UPCI-SCC90-UP-Clone 35, #90. Furthermore, 40 μM spinacine was able to enhance TRAIL-induced cell death in the HPV^+ #90 cell lines up to 50%.
The extracellular domain of human TRAIL was cloned into a pTriEx expression plasmid containing N-terminal Hisx6 tag. His-TRAIL was expressed in the E. coli BL-21 pLys strain and purified as previously described. Doxorubicin and cisplatin were purchased from Sigma. His-TRAIL, doxorubicin, and cisplatin were diluted in PBS to the desired concentration before using. […] All experiments were repeated at least three times (three biological replicates, carried out on different days), with each experimental group measured in triplicate within each of these individual experiments. […]

The mark [3] stands for this setting: bead-based assay, compounds tested 1.4 μM to 3.2 mM.

T3 sequence (Q14790 whole entry, the tested form may be a part): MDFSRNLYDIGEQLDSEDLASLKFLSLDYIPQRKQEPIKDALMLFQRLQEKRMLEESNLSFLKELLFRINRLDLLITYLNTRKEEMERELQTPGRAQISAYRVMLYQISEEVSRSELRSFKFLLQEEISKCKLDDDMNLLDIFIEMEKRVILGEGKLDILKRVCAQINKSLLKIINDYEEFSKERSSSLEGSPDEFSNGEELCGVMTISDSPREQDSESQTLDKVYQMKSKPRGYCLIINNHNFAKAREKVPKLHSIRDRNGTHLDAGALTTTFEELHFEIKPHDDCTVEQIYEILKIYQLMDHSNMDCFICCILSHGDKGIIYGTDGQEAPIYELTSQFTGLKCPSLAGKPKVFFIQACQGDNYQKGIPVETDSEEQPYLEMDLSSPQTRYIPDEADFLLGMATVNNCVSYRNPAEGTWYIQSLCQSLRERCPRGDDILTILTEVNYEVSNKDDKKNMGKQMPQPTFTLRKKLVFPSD
T1 sequence (P03126 whole entry): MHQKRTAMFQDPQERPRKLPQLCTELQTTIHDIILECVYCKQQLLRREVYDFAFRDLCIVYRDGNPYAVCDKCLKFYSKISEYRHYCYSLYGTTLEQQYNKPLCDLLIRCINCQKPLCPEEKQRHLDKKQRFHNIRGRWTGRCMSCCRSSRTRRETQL
T2 sequence (P03126 whole entry): as above

As for `CS(=O)(=O)O.NCCCn1ccc2ccccc21` [Compound 1, 3-(1H-indol-1-yl)propan-1-amine methanesulfonate], on GST-E6/His-caspase 8, the “inhibition of E6/caspase 8 binding (in words)” value is “dose-dependent inhibition”. In addition, the “inhibition of E6/E6AP interaction (in words)” value on GST-E6/His-E6AP is “could also inhibit the E6/E6AP interaction”. For the same molecule, the “inhibition of caspase 8/caspase 8 interaction (in words)” value in assay [1] is “able to inhibit the caspase 8/caspase 8 interaction”.
The like results for `c1ccc2[nH]cnc2c1` [Compound 2, benzimidazole] were, in that order, “dose-dependent inhibition”, “could also inhibit the E6/E6AP interaction” and “able to inhibit the caspase 8/caspase 8 interaction”.
In the case of `COCc1nc2ccccc2[nH]1` [Compound 4, 2-(methoxymethyl)-1H-benzimidazole], at GST-E6/His-caspase 8 (setting [3]), the “EC50 for GST-E6/His-caspase 8 interaction” value was “No inhibition”. In addition, the “EC50 for GST-E6/His-E6AP interaction” value at GST-E6/His-E6AP (setting [3]) is recorded as “No inhibition”. In addition, in assay [1] (compounds tested 1.4 μM to 3.2 mM), the “EC50 for GST-caspase 8/His-caspase 8 interaction” value is recorded as “No inhibition”.

B1: TRAIL: tumor necrosis factor-related apoptosis-inducing ligand; extracellular domain of human TRAIL, His-tagged, expressed in E. coli (protein, UniProt P50591 39-281, looked up)
extracellular domain: TNELKQMQDKYSKSGIACFLKEDDSYWDPNDEESMNSPCWQVKWQLRQLVRKMILRTSEETISTVQEKQQNISPLVRERGPQRVAAHITGTRGRSNTLSSPNSKNEKALGRKINSWESSRSGHSFLSNLHLRNGELVIHEKGFYYIYSQTYFRFQEEIKENTKNDKQMVQYIYKYTSYPDPILLMKSARNSCWSKDAEYGLYSIYQGGIFELKENDRIFVSVTNEHLIDMDHEASFFGAFLVG
modifications: extracellular domain His tag
notes: tumor necrosis factor-related apoptosis-inducing ligand; extracellular domain of human TRAIL, His-tagged, expressed in E. coli
Turning to B1, in the assay with SiHa cells, the “response of cells to TRAIL alone (in words)” value was “relatively resistant”. For the same molecule, the “response of HNSCC cell lines to TRAIL alone (in words)” value in assay [2] is recorded as “resistance”.
